Laboratory results as given in US12139481B2, “Compositions comprising macrocycle derivatives incorporating bridged macrocycles and methods of producing and using same” (Southwestern Oklahoma State University, priority 2015, dated 2024).
Where two headings read alike, the source gives them in different places.

Experiments:
[1] = system: C. glabrata ATCC 90030; assay: Antifungal broth dilution assay against C. glabrata (modified CLSI); format: cell-based, Candida glabrata; conditions: for X more potent than Amphotericin B: molar IC50 ratio versus amphotericin B
Method: (§1) General Experimental Procedures. All organisms were obtained from the American Type Culture Collection (Manassas, VA) and include the fungi Candida albicans ATCC 90028, C. glabrata ATCC 90030, C. krusei ATCC 6258, and Cryptococcus neoformans ATCC 90113, and the bacteria Staphylococcus aureus ATCC 29213 and methicillin-resistant S. aureus ATCC 33591 (MRS). All organisms were tested using modified versions of the CLSI (formerly NCCLS) methods. For all organisms, optical density was used to monitor growth (NCCLS, Reference Method for Broth Dilution Antifungal Susceptibility Testing of Yeasts; Approved Standard M27-A2. National Committee on Clinical Laboratory Standards, 2002 22 (15); and NCCLS, Methods for Dilution Antimicrobial Susceptibility Tests for Bacteria that Grow Aerobically; Approved Standard, Seventh Edition M7-A7. National Committee on Clinical Laboratory Standards, 2006. 26(2)).
(§2) Samples (dissolved in DMSO) were serially-diluted in 20% DMSO/saline and transferred (10 μL) in duplicate to 96 well flat bottom microplates. Inocula were prepared by correcting the OD630 of microbe suspensions in incubation broth [RPMI 1640/0.2% dextrose/0.03% glutamine/MOPS @ pH 6.0 (Cellgro) for Candida spp., Sabouraud Dextrose for C. neoformans, and cation-adjusted Mueller-Hinton (Difco) @ pH 7.3 for Staphylococcus spp. to afford an assay volume of […] and final target inocula of: Candida spp. and C. neoformans: 1.5×10^3, and Staphylococcus spp.: 5.0×10^5 CFU/ml. Final sample test concentrations were 1/100th the DMSO stock concentration. […] All organisms were read at either 530 nm using the Biotek Powerwave XS plate reader (Bio-Tek Instruments, Vermont) prior to and after incubation: Candida spp. at 35° C. for 46-50 h, Staphylococcus spp. at 35° C. for 16-20 h, and C. neoformans at 35° C. for 70-74 h. IC50s (concentrations that afford 50% inhibition relative to controls) were calculated using XLfit 4.2 software (IDBS, Alameda, CA) using fit model 201. The MIC is defined as the lowest test concentration that allows no detectable growth. Minimum fungicidal or bactericidal concentrations were determined by removing 5 μl from each clear (or blue) well, transferring to fresh media, and incubating as previously mentioned. The MFC/MBC is defined as the lowest test concentration that kills the organism (allows no growth).
(§3) Primary Analysis. Samples were tested in duplicate at one test concentration (50 μg/mL), and percent inhibitions were calculated relative to blank and growth controls. Samples showing 50% inhibition in at least one test organism were selected for dose response (Secondary) studies.
(§4) Secondary Analysis. Extracts from the Primary Assay, and first-run pure compounds and column fractions were tested in duplicate at 3 test concentrations (5-fold dilutions). Samples dissolved to 20 mg/mL in DMSO were tested at 200, 40, and 8 μg/mL. Samples dissolved to 2 mg/mL in DMSO were tested at 20, 4, and 0.8 μg/mL.

[2] = system: Cryptococcus neoformans ATCC 90113; assay: Antimicrobial microdilution assay against Cryptococcus neoformans (modified CLSI/NCCLS, optical density); format: cell-based; conditions: for X more potent than Amphotericin B: C. neoformans, ratio of molar IC50 to Amphotericin B
Method in brief: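 Fungicidal endpoint taken by subculturing 5 μL from each clear well onto agar, MFC being the lowest concentration with no regrowth. Duplicate wells of serially diluted compound (20% DMSO/saline) in RPMI pH 6.0, read at 630 nm pre- and post-incubation, under modified CLSI methods. IC50 means 50% growth inhibition against controls.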

[3] = system: C. krusei ATCC 6258; assay: Antifungal broth dilution assay against C. krusei (modified CLSI); format: cell-based, Candida krusei; conditions: for X more potent than Amphotericin B: C. krusei, ratio of molar IC50 to amphotericin B; for C. krusei IC50 / IC50: in vitro
Method: as §1, §2, §3, §4

[4] = system: L. donovani promastigotes; assay: Antileishmanial Alamar Blue assay on promastigotes; format: cell-based, Leishmania donovani; conditions: for X more potent than Pentamidine: L. donovani, ratio of molar IC50 to Pentamidine
Method in brief: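 Alamar Blue fluorescence (544/590 nm) quantified growth after 48 hours at 26° C of compound-treated promastigotes. Parasites were seeded at 5×10^5/mL in RPMI 1640 plus 10% FCS; drug range 50-3.1 μg/mL, and IC50 derived by plotting percent growth against test concentration.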

[5] = in vitro, converted with molecular weight
[6] = in vitro, C. neoformans ATCC 90113
[7] = read-out: C. krusei IC50 (mol/L)
[8] = in vitro, C. neoformans ATCC 90113, read-out: C. neoformans IC50 (mol/L)
[9] = promastigotes, 48 hours, Alamar Blue
[10] = promastigotes, 48 hours, Alamar Blue, read-out: L. donavani IC50

| Compound | X more potent than Amphotericin B [2] | C. neoformans IC50 [2, 6] | X more potent than Amphotericin B [3] | C. krusei IC50 [3] | IC50 [3, 7] | IC50 [2, 8] | X more potent than Pentamidine [4] | L. donovani IC50 [4, 9] | IC50 [4, 10] | other results |
| --- | --- | --- | --- | --- | --- | --- | --- | --- | --- | --- |
| C[C@@H]1[C@H](O)[C@@H](C)/C=C/C=C/C=C/C=C/C=C/C=C/C=C/[C@H](O[C@@H]2O[C@H](C)[C@@H](O)[C@H](N)[C@@H]2O)C[C@@H]2O[C@](O)(C[C@@H](O)C[C@@H](O)[C@H](O)CC[C@@H](O)C[C@@H](O)CC(=O)O[C@H]1C)C[C@H](O)[C@H]2C(=O)O [AMB, Amphotericin B, reference compound] | 1.00 | 0.220 µg/mL | 1.00 | 1.380 µg/mL | 1.49 µM | – | – | – | – | C. glabrata IC50 ([1]; in vitro): 1.310 µg/mL; IC50 [1, 5]: 1.42 µM; X more potent than Amphotericin B [1]: 1.00; IC50 ([2]; read-out: IC50 against C. neoformans): 0.238 µM |
| CC(=O)[O-].F[P-](F)(F)(F)(F)F.F[P-](F)(F)(F)(F)F.F[P-](F)(F)(F)(F)F.[Mn+2].[NH4+].[NH4+].c1ccc(CN2CCN3CCCN(CC2)CCN(Cc2ccccc2)CC3)cc1 [AW036, [Mn(Bn2PBCyclen)(C2H3O2)]PF6•2NH4PF6] | 0.03 | 7.070 µg/mL | 0.29 | 4.990 µg/mL | 5.11 µM | 7.23 µM | 0.20 | 25.41 µg/mL | 26 µM | – |
| CC(=O)[O-].F[P-](F)(F)(F)(F)F.[Zn+2].c1ccc(CN2CCN3CCCN(CC2)CCN(Cc2ccccc2)CC3)cc1 [AW041, [Zn(Bn2PBCyclen)(C2H3O2)]PF6] | 0.02 | 7.330 µg/mL | 0.19 | 5.170 µg/mL | – | – | 0.15 | 22.92 µg/mL | – | – |
| c1c(CN2CCCN3CCN(CCCNCC2)CC3)cc(CN2CCCN3CCN(CCCNCC2)CC3)cc1CN1CCCN2CCN(CCCNCC1)CC2 [CDG19, tris-SB-cyclams] | 1.05 | – | 0.25 | – | – | – | 0.27 | – | – | IC50 ([1]; Nakaseomyces glabratus, ATCC90030, in vitro): 9.8 µg/mL; IC50 ([1]; Nakaseomyces glabratus, ATCC90030, in vitro, converted with molecular weight): 12.3 µM; X more potent than Amphotericin B [1]: 0.11; IC50 ([2]; Cryptococcus neoformans, ATCC90113, in vitro, C. neoformans ATCC 90113, read-out: C. neoformans IC50 (mol/L)): 0.227 µM; IC50 ([2]; Cryptococcus neoformans, ATCC90113, in vitro, C. neoformans ATCC 90113, read-out: C. neoformans IC50 (μg/mL)): 0.18 µg/mL; IC50 ([4]; Leishmania donovani, 48 h, read-out: L. donavani IC50 (mol/L)): 20.1 µM; IC50 ([4]; Leishmania donovani, promastigotes, 48 hours, Alamar Blue, read-out: L. donovani IC50): 15.9 µg/mL; IC50 ([3]; Pichia kudriavzevii, ATCC6258, read-out: C. krusei IC50 (mol/L)): 6.04 µM; IC50 ([3]; Pichia kudriavzevii, ATCC6258, read-out: C. krusei IC50 (μg/mL)): 4.79 µg/mL |
| c1c(CN2CCNCCN3CCN(CC3)CC2)cc(CN2CCNCCN3CCN(CC3)CC2)cc1CN1CCNCCN2CCN(CC2)CC1 [CDG29, tris-SB-cyclens] | 1.69 | 0.100 µg/mL | 0.23 | 4.660 µg/mL | 6.57 µM | 0.141 µM | 0.32 | 11.69 µg/mL | 16.5 µM | – |
| CC(=O)[O-].CC(=O)[O-].F[P-](F)(F)(F)(F)F.F[P-](F)(F)(F)(F)F.O.O.[Cu+2].[Cu+2].c1cc(CN2CCNCCN3CCN(CC3)CC2)cc(CN2CCNCCN3CCN(CC3)CC2)c1 [OB34, [Cu2(m-SB-Cyclens)(OAc)2][PF6]2•2H2O] | 0.32 | ≤ 0.800 µg/mL | 0.28 | 5.780 µg/mL | 5.4 µM | 0.748 µM | – | – | – | – |
| CC(=O)[O-].CC(=O)[O-].F[P-](F)(F)(F)(F)F.F[P-](F)(F)(F)(F)F.O.[Ni+2].[Ni+2].c1cc(CN2CCNCCN3CCN(CC3)CC2)cc(CN2CCNCCN3CCN(CC3)CC2)c1 [OB35, [Ni2(m-SB-Cyclens)(OAc)2][PF6]2•H2O] | 0.31 | ≤ 0.800 µg/mL | 1.95 | 0.800 µg/mL | 0.768 µM | 0.768 µM | – | – | – | – |
| c1cc(CN2CCNCCCN3CCN(CC3)CC2)ccc1CN1CCNCCCN2CCN(CC2)CC1 [OB45, p-SB-Homocyclens] | 0.16 | ≤ 0.800 µg/mL | 0.98 | 0.800 µg/mL | 1.52 µM | 1.52 µM | 0.16 | 17.44 µg/mL | 33.1 µM | – |
| Cl.Cl.Cl.Cl.Cl.Cl.Cl.Cl.c1cc(CN2CCNCCCN3CCN(CC3)CC2)cc(CN2CCNCCCN3CCN(CC3)CC2)c1 [OB46B, m-SB-homocyclens HCl salt] | 0.75 | 0.280 µg/mL | 0.16 | 7.420 µg/mL | 9.06 µM | – | 0.13 | 34.26 µg/mL | 41.9 µM | IC50 ([2]; in vitro, C. neoformans ATCC 90113, HCl salt, read-out: C. neoformans IC50 (mol/L)): 0.318 µM |
| CN1CCN2CCN(CC1)CCN(Cc1nc3ccccc3n1Cc1ccc([N+](=O)[O-])cc1)CC2 [SJA230, CB-BINO2-cyclen] | 0.01 | 7.930 µg/mL | 0.09 | 7.690 µg/mL | 16.1 µM | 16.6 µM | – | – | – | – |
| O=[N+]([O-])c1ccc(CC2CNCCN(Cc3ccc(CN4CCCN5CCN(CCCNCC4)CC5)cc3)CCCN3CCN(CC3)C2)cc1 (stereo not drawn) [SJA233, Bis-SB-C-Ar-NO2] | 0.30 | 0.550 µg/mL | 0.25 | 4.070 µg/mL | 5.9 µM | 0.797 µM | 0.12 | 30.32 µg/mL | 43.9 µM | – |
| O=[N+]([O-])c1ccc(CC2CNCCN(Cc3ccc(CN4CCCN5CCN(CCCNCC4)CC5)cc3)CCCN3CCN(CC3)C2)cc1.[Cu+2].[Cu+2].[O-][Cl+3]([O-])([O-])[O-].[O-][Cl+3]([O-])([O-])[O-].[O-][Cl+3]([O-])([O-])[O-].[O-][Cl+3]([O-])([O-])[O-] (stereo not drawn) [SJA234, [Cu2(bis-SB-C-Ar-NO2)(ClO4)4]] | 0.15 | 1.910 µg/mL | 0.40 | 4.550 µg/mL | 3.75 µM | 1.57 µM | 0.21 | 30.31 µg/mL | 24.9 µM | – |
| [Zn3(tris-CB-Cyclams)(OAc)3][PF6]3•2.4NH4PF6 [BNS26] | 0.07 | 6.840 µg/mL | 2.49 | 1.220 µg/mL | 0.6 µM | 3.36 µM | – | – | – | C. glabrata IC50 ([1]; in vitro): 2.140 µg/mL; IC50 [1, 5]: 1.05 µM; X more potent than Amphotericin B [1]: 1.35 |
